The test system of data set [1] is breast MCF-7 cancerous cell line. The data set can be described thus: MTT cytotoxicity assay. The following applies: Homo sapiens, MCF7, 24 h, read-out: IC50 (μM) MCF-7.
Protocol: The MTT colorimetric method, a frequently utilized assay for detecting the in vitro cytotoxic activities of drugs, was chosen to evaluate the cytotoxic action of the imidazolone-sulphonamide-pyrimidine hybrids 5a–l and 6a,b in hands against breast MCF-7 adenocarcinoma cell line, and they were compared to Dox as the positive control.
under 5% CO2. After incubation, the cells were treated with different concentrations of the test imidazolone hybrids 5a-l and 6a,b and incubated for 24 h, then 20 l of MTT
Another data set concerns the target T1, EGFR-TK (Homo sapiens, UniProt P00533).
T1 construct: purchased BPS Bioscience 40321
The data set can be described thus: EGFR kinase inhibitory assay (BPS Bioscience EGFR Kinase Assay Kit). It counts as biochemical. The following applies: mean of three replicates; read-out: IC50 on EGFR enzyme. The procedure: S4.2.1. Cytotoxic activity evaluation […]
adenocarcinoma (MCF-7) cell line. Cell viability assay was assessed using MTT assay […]
under 5% CO2. After incubation, the cells were treated with different concentrations of the test imidazolone hybrids 5a-l and 6a,b and incubated for 24 h, then 20 µl of MTT […]
(DMSO) in volume of 100 µl was added to each well to dissolve the purple formazan that had formed. The color intensity of the formazan product, which represents the […]
USA) at 570 nm absorbance. The experimental conditions were carried out with at least three replicates, and the experiments were repeated at least three times.
S4.2.2. EGFR kinase Assay […]
activity according to manufacturer’s instructions using # BPS Bioscience EGFR

For data set [2], the system named is MCF-7 cells. The data set can be described thus: Cell cycle analysis by flow cytometry (PI). The data set is classed as cell-based. The following applies: 1.05 μM (IC50), 48 h. The procedure: The impact of the best potent hybrid molecule on the cellular cycle distribution was further evaluated on the MCF-7 cell line.
S4.2.3. Cell cycle analysis of compound 6b
Cell cycle analysis in MCF-7 cells was investigated using fluorescent Annexin V-FITC/ PI detection kit (BioVision EZCellTM Cell Cycle Analysis Kit Catalog #K920) by flow cytometry assay. MCF-7 cells at a density of 2 × 10^5 per well were harvested and washed twice in PBS. After that, the cells were incubated at 37 °C and 5% CO2. The medium was incubated with the tested compound 6b at the IC50 (µM) for 48 h, washed twice in PBS, fixed with 70% ethanol, rinsed again with PBS. Afterward, medium was stained with DNA fluorochrome PI for 15 min at 37 °C. The samples were immediately analyzed using Facs Calibur flow cytometer (Becton and Dickinson, Heidelberg, […]
S4.2.4. Apoptosis assay for compound 6b
(1 picture or pasted object on this page, not shown here)

In the next data set the test system is Bcl-2. The data set can be described thus: qRT-PCR expression of pro-survival Bcl-2 in MCF-7 cells. The data set is classed as cell-based. The note with it: IC50 concentration, 48 h, MCF-7, decline. The source says: (§1) The Bcl-2 family members are essential in determining whether a cell will survive or perish since they reside upstream of the irreversible cellular damage.[40] Two groups of the Bcl-2 family proteins are distinguished by pro-survival (e.g. Bcl-2) or pro-apoptotic (Bax) activity.[41] The pro-apoptotic factors promote cellular death. When Bcl-2-associated x-protein (Bax) homodimerizes it enhances apoptosis. The anti-apoptotic effect of Bcl-2 may be due to its ability to inhibit Bax homodimerization.[42,43] […] It is noteworthy, that the level of pro-survival Bcl-2 protein declined by 0.28-fold compared to the control untreated cells. […] These findings support that 4-(furan-2-ylmethylene)imidazolone-sulphonamide-pyrimidine hybrid 6b induces apoptosis by regulating the expression of Bcl-2 family proteins.
(§2) Fig. 5 Roles of Bcl-2 family protein in apoptosis induced by 4-(furan-2-ylmethylene)imidazolone-sulphonamide-pyrimidine hybrid 6b. (A) Pro-survival Bcl-2 protein; (B) pro-apoptotic Bax protein. Cells underwent treatment with an IC50 concentration of imidazolone hybrids 6b for 48 h and the expression of apoptosis-related proteins was examined by qRT-PCR assay.
For orientation: Quantitative PCR measures a nucleic acid by following its amplification.

The subject of a further data set is Bax. As to the kind of experiment: qRT-PCR expression of pro-apoptotic Bax in MCF-7 cells. The data set is classed as cell-based. The following applies: IC50 concentration, 48 h, MCF-7, increase.
From the text: as §1, §2

Data set [3] relates to MCF-7 cells. As to the kind of experiment: Annexin V-FITC/PI apoptosis assay by flow cytometry. It counts as cell-based. The following applies: IC50 concentration, 48 h. The source says:
Apoptosis, a form of programmed cellular death, is a widespread phenomenon, occurring in processes such as morphogenesis, growth and development as well as normal turnover in adult tissue.[35] Most cells are programmed to die if survival signals are not received regularly from their environment.[36] It can be initiated by endogenous tissue-specific agents such as cytokines or exogenous cell-damaging agents such as chemicals.[37] It is evidenced from the literature that exposure to EGFR-TK inhibitors leads to cellular apoptosis.[38] Thus, the effect of examined 4-(furan-2-ylmethylene)imidazolone-sulphonamide-pyrimidine hybrid 6b on the apoptosis of the MCF-7 cells was assessed utilizing Annexin V-FITC/PI double labeling followed by flow cytometry (Fig. 4). […] 4-(furan-2-ylmethylene)imidazolone-sulphonamide-pyrimidine hybrid 6b induced 46.1% apoptosis in the MCF-7 cancer cells. Thus, it is evident that this compound had substantial apoptosis-inducing action against the MCF-7 breast cancerous cell line.
Apoptosis in MCF-7 cells was investigated using fluorescent Annexin V-FITC/ PI detection kit (BioVision Annexin V-FITC Apoptosis Detection Kit, Catalog #: K101) by flow cytometry assay. MCF-7 cells at a density of 2 × 10^5 per well were treated with compound 6b at the IC50 (µM) for 48 h, then the cells were harvested and stained with Annexin V-FITC/ PI dye for 15 min in the dark at 37 °C. The samples were immediately analyzed using FACS Calibur flow cytometer (Becton and Dickinson, […]
Background: A flow cytometer gives signals particle by particle.

A value given as a limit tells only on which side of the number the result lay.

T1 sequence (P00533 25-1210): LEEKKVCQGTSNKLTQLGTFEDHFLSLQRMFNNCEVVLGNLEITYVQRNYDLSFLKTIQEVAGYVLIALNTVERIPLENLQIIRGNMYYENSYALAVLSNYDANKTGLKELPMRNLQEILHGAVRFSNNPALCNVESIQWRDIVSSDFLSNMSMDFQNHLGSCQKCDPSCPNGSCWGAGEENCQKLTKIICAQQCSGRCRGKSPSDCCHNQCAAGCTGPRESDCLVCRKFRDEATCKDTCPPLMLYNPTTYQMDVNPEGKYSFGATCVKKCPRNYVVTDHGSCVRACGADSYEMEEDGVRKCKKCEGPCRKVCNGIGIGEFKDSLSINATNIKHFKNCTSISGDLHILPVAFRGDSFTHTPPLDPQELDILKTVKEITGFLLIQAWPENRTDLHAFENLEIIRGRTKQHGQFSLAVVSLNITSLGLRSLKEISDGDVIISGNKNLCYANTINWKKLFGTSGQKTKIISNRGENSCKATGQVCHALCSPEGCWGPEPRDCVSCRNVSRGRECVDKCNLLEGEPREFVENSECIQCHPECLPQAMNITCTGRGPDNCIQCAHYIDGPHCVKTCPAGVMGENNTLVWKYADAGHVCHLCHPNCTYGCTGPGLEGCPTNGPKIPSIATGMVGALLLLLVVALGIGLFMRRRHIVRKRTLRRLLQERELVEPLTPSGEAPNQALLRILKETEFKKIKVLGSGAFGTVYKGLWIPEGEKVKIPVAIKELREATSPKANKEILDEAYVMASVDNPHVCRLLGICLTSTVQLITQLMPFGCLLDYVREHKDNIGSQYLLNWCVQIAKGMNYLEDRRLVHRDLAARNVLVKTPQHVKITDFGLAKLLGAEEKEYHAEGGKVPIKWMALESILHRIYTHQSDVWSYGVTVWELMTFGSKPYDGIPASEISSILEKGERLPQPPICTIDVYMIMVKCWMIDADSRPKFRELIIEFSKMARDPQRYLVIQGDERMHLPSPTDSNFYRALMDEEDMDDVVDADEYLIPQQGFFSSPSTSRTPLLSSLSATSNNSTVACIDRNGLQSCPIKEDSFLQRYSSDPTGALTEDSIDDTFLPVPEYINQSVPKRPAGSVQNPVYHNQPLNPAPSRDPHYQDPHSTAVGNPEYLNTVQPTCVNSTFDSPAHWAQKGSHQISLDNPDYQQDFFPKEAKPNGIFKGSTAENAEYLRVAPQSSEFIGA

As a reminder, the IC50 is the concentration that gives 50% inhibition. As usually defined, the melting point is the temperature, or range, at which the solid turns liquid. Take `COc1ccc(/C=C2\N=C(c3ccccc3)N(c3ccc(S(=O)(=O)Nc4ncccn4)cc3)C2=O)c(OC)c1OC` [5e, (Z)-4-(5-oxo-2-phenyl-4-(2,3,4-trimethoxybenzylidene)-4,5-dihydro-1H-imidazole-1-yl)-N-(pyrimidin-2-yl)benzenesulfonamide]: the melting point lay within 210 to 212 °C. Further, in data set [1], the IC50 is 37.2 ± 1.98 µM.

The compound `O=C1/C(=C/c2ccc(Br)cc2)N=C(c2ccccc2)N1c1ccc(S(=O)(=O)Nc2ncccn2)cc1` [5a, (Z)-4-(4-(4-bromobenzylidene)-5-oxo-2-phenyl-4,5-dihydro-1H-imidazole-1-yl)-N-(pyrimidin-2-yl)benzenesulfonamide] displayed a melting point of 290 to 292 °C. In addition, the IC50 in data set [1] was 14.1 ± 0.68 µM.

For the compound `O=C1/C(=C/c2ccco2)N=C(c2ccccc2)N1c1ccc(S(=O)(=O)Nc2ncccn2)cc1` [6a, (Z)-4-(4-(furan-2-ylmethylene)-5-oxo-2-phenyl-4,5-dihydro-1H-imidazole-1-yl)-N-(pyrimidin-2-yl)benzenesulfonamide], the melting point was 291 to 293 °C. Also, the IC50 in data set [1] is 5.09 ± 0.31 µM.

On to `CC(=O)Oc1c(Br)cc(/C=C2\N=C(c3ccccc3)N(c3ccc(S(=O)(=O)Nc4ncccn4)cc3)C2=O)cc1Br` [5d, (Z)-2,6-dibromo-4-((5-oxo-2-phenyl-1-(4-(N-pyrimidin-2-ylsulfamoyl)phenyl)-1H-imidazole-4(5H)-ylidene)methyl)phenyl acetate], for which the melting point was in the range of 243 to 245 °C. The IC50 in data set [1] amounted to 29.4 ± 1.64 µM.

Compound `O=C1/C(=C/c2ccccc2O)N=C(c2ccccc2)N1c1ccc(S(=O)(=O)Nc2ncccn2)cc1` [5b, (Z)-4-(4-(2-hydroxybenzylidene)-5-oxo-2-phenyl-4,5-dihydro-1H-imidazole-1-yl)-N-(pyrimidin-2-yl)benzenesulfonamide] returned a melting point of 188 to 190 °C. Also, the IC50 in data set [1] was determined as 31.4 ± 1.64 µM.

The compound `COc1ccc(C2=N/C(=C\c3ccc(Cl)cc3)C(=O)N2c2ccc(S(=O)(=O)Nc3ncccn3)cc2)cc1` [5h, (Z)-4-(4-(4-chlorobenzylidene)-2-(4-methoxyphenyl)-5-oxo-4,5-dihydro-1H-imidazole-1-yl)-N-(pyrimidin-2-yl)benzenesulfonamide] came in with a melting point of 262 to 264 °C. Besides, in data set [1], the IC50 was determined as 3.71 ± 0.2 µM. The IC50 at EGFR-TK is 0.16 µM.

`COc1ccc(C2=N/C(=C\c3ccccc3)C(=O)N2c2ccc(S(=O)(=O)Nc3ncccn3)cc2)cc1` [5f, (Z)-4-(4-benzylidene-2-(4-methoxyphenyl)-5-oxo-4,5-dihydro-1H-imidazole-1-yl)-N-(pyrimidin-2-yl)benzenesulfonamide] registered a melting point of 258 to 260 °C. In data set [1], the IC50 is 85.2 ± 4.72 µM.

`COc1ccc(C2=N/C(=C\c3ccc(F)cc3)C(=O)N2c2ccc(S(=O)(=O)Nc3ncccn3)cc2)cc1` [5g, (Z)-4-(4-(4-fluorobenzylidene)-2-(4-methoxyphenyl)-5-oxo-4,5-dihydro-1H-imidazole-1-yl)-N-(pyrimidin-2-yl)benzenesulfonamide] came in with a melting point of 257 to 259 °C. Also, the half-inhibitory concentration (IC50) in data set [1] was 4.57 ± 0.09 µM.

Regarding `COc1ccc(C2=N/C(=C\c3ccco3)C(=O)N2c2ccc(S(=O)(=O)Nc3ncccn3)cc2)cc1` [6b, (Z)-4-(4-(furan-2-ylmethylene)-2-(4-methoxyphenyl)-5-oxo-4,5-dihydro-1H-imidazole-1-yl)-N-(pyrimidin-2-yl)benzenesulfonamide], the values for the IC50 (in data set [1]; at EGFR-TK) were 1.05 ± 0.04 µM and 0.09 µM, respectively. In the data set on MCF-7 cells [2] (control 13.7%), the “MCF-7 cells in G2/M phase” value was 10.8%. For the same compound, the “MCF-7 cells in S phase” value with MCF-7 cells [2] (control 35.1%) stood at 24.3%. Further, the “MCF-7 cells in G1 phase” value in the data set with MCF-7 cells [2] (control 51.2%) is 64.9%. Further, the “Bcl-2 expression level relative to untreated control” value in the data set on Bcl-2 came out at 0.28 fold. For the same compound, the “Bax expression level relative to untreated control” value in the data set on Bax worked out at 4.54 fold. Besides, the “apoptosis induced in MCF-7 cells (total)” value in the data set on MCF-7 cells [3] is on record as 46.1%. The “apoptotic cells in the late stage (upper right quadrant)” value with MCF-7 cells [3] (control 0.2%) stood at 23.4%. Besides, the “apoptotic cells in the early stage (lower right quadrant)” value with MCF-7 cells [3] (control 0.6%) turned out to be 22.7%.

Consider `Cc1ccc(/C=C2\N=C(c3ccccc3)N(c3ccc(S(=O)(=O)Nc4ncccn4)cc3)C2=O)cc1` [5c, (Z)-4-(4-(4-methylbenzylidene)-5-oxo-2-phenyl-4,5-dihydro-1H-imidazole-1-yl)-N-(pyrimidin-2-yl)benzenesulfonamide], for which the melting point lay within 277 to 279 °C. In data set [1], the IC50 was determined as 43.9 ± 2.24 µM.

Consider `COc1cccc2c1C(=O)c1c(O)c3c(c(O)c1C2=O)C[C@@](O)(C(=O)CO)C[C@@H]3O[C@H]1C[C@H](N)[C@H](O)[C@H](C)O1` [Dox, doxorubicin, reference compound], for which the IC50 in data set [1] is 1.91 ± 0.07 µM.

In turn, `COc1ccc(C2=N/C(=C\c3ccc([N+](=O)[O-])cc3)C(=O)N2c2ccc(S(=O)(=O)Nc3ncccn3)cc2)cc1` [5j, (Z)-4-(2-(4-methoxyphenyl)-4-(4-nitrobenzylidene)-5-oxo-4,5-dihydro-1H-imidazole-1-yl)-N-(pyrimidin-2-yl)benzenesulfonamide] yielded a melting point of over 300 °C. The 50% inhibitory concentration (IC50) in data set [1] is 3.14 ± 0.16 µM. In addition, on EGFR-TK, the IC50 was found to be 0.21 µM.

The compound `COc1ccc(C2=N/C(=C\c3ccc(Br)cc3)C(=O)N2c2ccc(S(=O)(=O)Nc3ncccn3)cc2)cc1` [5i, (Z)-4-(4-(4-bromobenzylidene)-2-(4-methoxyphenyl)-5-oxo-4,5-dihydro-1H-imidazole-1-yl)-N-(pyrimidin-2-yl)benzenesulfonamide] returned a melting point of 284 to 286 °C. In addition, in data set [1], the IC50 was determined as 9.98 ± 0.61 µM.

`COc1ccc(C2=N/C(=C\c3cc(Br)c(OC(C)=O)c(Br)c3)C(=O)N2c2ccc(S(=O)(=O)Nc3ncccn3)cc2)cc1` [5k, (Z)-2,6-dibromo-4-((2-(4-methoxyphenyl)-5-oxo-1-(4-(N-pyrimidin-2-ylsulfamoyl)phenyl)-1H-imidazole-4(5H)-ylidene)methyl)phenyl acetate] displayed a melting point of 239 to 241 °C. Besides, the 50% inhibitory concentration (IC50) in data set [1] is 14.5 ± 0.65 µM.

In turn, `COc1ccc(C2=N/C(=C\c3cc(OC)c(OC)c(OC)c3)C(=O)N2c2ccc(S(=O)(=O)Nc3ncccn3)cc2)cc1` [5l, (Z)-4-(2-(4-methoxyphenyl)-5-oxo-4-(3,4,5-trimethoxybenzylidene)-4,5-dihydro-1H-imidazole-1-yl)-N-(pyrimidin-2-yl)benzenesulfonamide] registered a melting point of 247 to 249 °C. In data set [1], the IC50 stood at 25.8 ± 1.24 µM.

The record behind these values is article PMC11194663, “Synthesis and biological research of new imidazolone-sulphonamide-pyrimidine hybrids as potential EGFR-TK inhibitors and apoptosis-inducing agents” (RSC Advances, 2024).
